Experimental data from the supplement of paper PMC8671470.

Columns and labels:
Details in all cases: 72 h
HL-60 [1] = assay: area under dose-response curve (viability, 1 nM-10 uM) (fraction (0-1)); higher = more sensitive
Procedure, shortened: (§1)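 Four-parameter log-logistic fits in drc and PharmacoGx supplied area under the curve where it is given. Underlying viability came from CellTiter-Glo, normalised to DMSO and proteasome-inhibitor wells, with the proteasome inhibitor at 10 μM. HL-60 cells in RPMI 1640 plus 10% FBS had been rescreened against the full library at five tenfold concentrations of 1–10,000 nM, in duplicate on 384-well plates, with DMSO or 100 nM of one of three metabolic inhibitors, for 72 h at 37 °C, 5% CO2.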

HL-60 [2] = assay: cell viability (% survival relative to DMSO control); higher = less cytotoxic
Procedure, shortened: as §1

[3] = test system: myeloid leukemia patient primary cells Pat.1; assay: cell viability (% survival relative to DMSO control); higher = less cytotoxic
Procedure, shortened: (§2)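 Thawed mononuclear cells from AML or CML patients were purified on Ficoll and cultured for 72 h in RPMI 1640 with 10% FBS, at 10,000 cells/well, on 384-well plates carrying 70 pre-printed compounds at 1–10,000 nM in five tenfold steps, in duplicate. Viability came from CellTiter-Glo, normalised against DMSO and against 10 μM proteasome inhibitor. Any area under the curve given was derived from log-logistic curve fits in the drc and PharmacoGx R packages, and these fits had four parameters.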

[4] = test system: myeloid leukemia patient primary cells Pat.12; assay: as above
Procedure, shortened: as §2

[5] = test system: myeloid leukemia patient primary cells Pat.3; assay: as above
Procedure, shortened: as §2

[6] = test system: myeloid leukemia patient primary cells Pat.15; assay: as above
Procedure, shortened: as §2

[7] = test system: myeloid leukemia patient primary cells Pat.6; assay: as above
Procedure, shortened: as §2

[8] = test system: myeloid leukemia patient primary cells Pat.5; assay: as above
Procedure, shortened: as §2

[9] = test system: myeloid leukemia patient primary cells Pat.4; assay: as above
Procedure, shortened: as §2

[10] = test system: myeloid leukemia patient primary cells Pat.14; assay: as above
Procedure, shortened: as §2

[11] = test system: myeloid leukemia patient primary cells Pat.8; assay: as above
Procedure, shortened: as §2

[12] = test system: myeloid leukemia patient primary cells Pat.11; assay: as above
Procedure, shortened: as §2

[13] = test system: myeloid leukemia patient primary cells Pat.13; assay: as above
Procedure, shortened: as §2

[14] = test system: myeloid leukemia patient primary cells Pat.9; assay: as above
Procedure, shortened: as §2

[15] = test system: myeloid leukemia patient primary cells Pat.2; assay: as above
Procedure, shortened: as §2

[16] = test system: myeloid leukemia patient primary cells Pat.7; assay: as above
Procedure, shortened: as §2

[17] = test system: myeloid leukemia patient primary cells Pat.10; assay: as above
Procedure, shortened: as §2

CO[C@H]1C[C@@H]2CC[C@@H](C)[C@@](O)(O2)C(=O)C(=O)N2CCCC[C@H]2C(=O)O[C@H]([C@H](C)C[C@@H]2CC[C@@H](OCCO)[C@H](OC)C2)CC(=O)[C@H](C)/C=C(\C)[C@@H](O)[C@@H](OC)C(=O)[C@H](C)C[C@H](C)/C=C/C=C/C=C/1C [Everolimus]
Details | area under dose-response curve, co-treatment: AZD3965 100 nM | area under dose-response curve, co-treatment: DMSO vehicle | area under dose-response curve, co-treatment: GSK2194069 100 nM | area under dose-response curve, co-treatment: pictilisib 100 nM | cell viability, 1 nM [%] | cell viability, 10 nM [%] | cell viability, 100 nM [%] | cell viability, 1000 nM [%] | cell viability, 10000 nM [%]
HL-60 [1] | < 0.0301 | < 0.0301 | < 0.0301 | < 0.0301 | – | – | – | – | –
[3] | – | – | – | – | 88.6 | 56.4 | 74 | 60.2 | 41.2
[4] | – | – | – | – | 96.2 | > 100 | > 100 | 93.7 | 99
[5] | – | – | – | – | 78.6 | 5.05 | 94.1 | 42.3 | 7.24
[6] | – | – | – | – | 62.3 | 44.6 | 36.8 | 40 | 22.9
[7] | – | – | – | – | 96.2 | 92.4 | 99.1 | 87.4 | 53.5
[8] | – | – | – | – | 49.5 | 20.5 | 23 | 9.25 | 0.912
[9] | – | – | – | – | 64.8 | 57.9 | 47 | 47.3 | 41.9
[10] | – | – | – | – | 90.7 | 53.5 | 96.7 | 59.3 | 17.4
[11] | – | – | – | – | 67.6 | 68.8 | 56.4 | 80.7 | 66.5
[12] | – | – | – | – | 90.6 | 83.8 | 89.2 | 87.3 | 70.2
[13] | – | – | – | – | 82.2 | 82.6 | 74.8 | 79.3 | 43.1
[14] | – | – | – | – | 64.2 | 22.3 | 87.7 | 15.7 | 0.492
[15] | – | – | – | – | 82.6 | 83.8 | 74.4 | 82.3 | 68.2
[16] | – | – | – | – | 85 | 68.8 | 99.3 | 79.1 | 2.34
[17] | – | – | – | – | 34.9 | 31.3 | 34.9 | 41.7 | 11.8

cell viability [%], HL-60 [2]
Details | 0.001 µM | 0.01 µM | 0.1 µM | 1 µM | 10 µM
co-treatment: AZD3965 100 nM | 100 | 95.63 | 97.03 | 93.2 | 83.2
co-treatment: DMSO vehicle | 84.2 | 90.5 | 93.85 | 98.3 | 93.8
co-treatment: GSK2194069 100 nM | 85.1 | 88.9 | 97.9 | 110.7 | 88.4
co-treatment: pictilisib 100 nM | 78.7 | 88.7 | 87.9 | 89.2 | 72.1

CO[C@H]1C[C@@H]2CC[C@@H](C)[C@@](O)(O2)C(=O)C(=O)N2CCCC[C@H]2C(=O)O[C@H]([C@H](C)C[C@@H]2CC[C@@H](OC(=O)C(C)(CO)CO)[C@H](OC)C2)CC(=O)[C@H](C)/C=C(\C)[C@@H](O)[C@@H](OC)C(=O)[C@H](C)C[C@H](C)/C=C/C=C/C=C/1C [Temsirolimus]
Details | area under dose-response curve, co-treatment: AZD3965 100 nM | area under dose-response curve, co-treatment: DMSO vehicle | area under dose-response curve, co-treatment: GSK2194069 100 nM | area under dose-response curve, co-treatment: pictilisib 100 nM | cell viability, 1 nM [%] | cell viability, 10 nM [%] | cell viability, 100 nM [%] | cell viability, 1000 nM [%] | cell viability, 10000 nM [%]
HL-60 [1] | < 0.0301 | < 0.0301 | < 0.0301 | < 0.0301 | – | – | – | – | –
[3] | – | – | – | – | 89.3 | 47.4 | 52.9 | 70.1 | 51.8
[4] | – | – | – | – | 95.8 | 98.4 | 93.6 | 90.6 | 96.4
[5] | – | – | – | – | 97.6 | 86.7 | 77.1 | 95.1 | < 0
[6] | – | – | – | – | 69.7 | 47.8 | 38.4 | 39.2 | 21.8
[7] | – | – | – | – | 99.3 | 88.2 | 77.1 | 96.8 | 55.5
[8] | – | – | – | – | 46.4 | 11.5 | 3.45 | 58.7 | 0.265
[9] | – | – | – | – | 75.1 | 50.9 | 53.1 | 59 | 24.4
[10] | – | – | – | – | 73.7 | 58.7 | 48.6 | 71.6 | 5.69
[11] | – | – | – | – | 83.3 | 55.6 | 78.2 | 88.4 | 55.5
[12] | – | – | – | – | 94.5 | 81.9 | 79.7 | 88.4 | 74.4
[13] | – | – | – | – | 74.5 | 65.6 | 61.8 | 92 | 55.3
[14] | – | – | – | – | 78.2 | 48.1 | 25.1 | 49.6 | < 0
[15] | – | – | – | – | 79.1 | 69 | 69.6 | 80.6 | 63
[16] | – | – | – | – | 77.4 | 68.2 | 55.9 | 73.9 | < 0
[17] | – | – | – | – | 47.2 | 40.6 | 42.5 | 78.8 | 4.58

cell viability [%], HL-60 [2]
Details | 0.001 µM | 0.01 µM | 0.1 µM | 1 µM | 10 µM
co-treatment: AZD3965 100 nM | 99.9 | 97.186 | 101 | 92.3 | 86.7
co-treatment: DMSO vehicle | 101 | 96.3 | 97.65 | 90.3 | 100
co-treatment: GSK2194069 100 nM | 92.3 | 87.52 | 103.1 | 83.261 | 96.5
co-treatment: pictilisib 100 nM | 94.1 | 81 | 99.1 | 81.02 | 91.4

Cc1cc2c(C(C)C)c(O)c(O)c(C=O)c2c(O)c1-c1c(C)cc2c(C(C)C)c(O)c(O)c(C=O)c2c1O [Gossypol]
Details | area under dose-response curve, co-treatment: AZD3965 100 nM | area under dose-response curve, co-treatment: DMSO vehicle | area under dose-response curve, co-treatment: GSK2194069 100 nM | area under dose-response curve, co-treatment: pictilisib 100 nM | cell viability, 1 nM [%] | cell viability, 10 nM [%] | cell viability, 100 nM [%] | cell viability, 1000 nM [%] | cell viability, 10000 nM [%]
HL-60 [1] | 0.123 | 0.124 | 0.154 | 0.145 | – | – | – | – | –
[3] | – | – | – | – | 82.1 | 92.5 | 92.2 | 78.8 | 14.3
[4] | – | – | – | – | 98.6 | 94 | 88.1 | 99.1 | 50.5
[5] | – | – | – | – | 96.5 | 28 | 70.6 | < 0 | 3.08
[6] | – | – | – | – | 98.2 | 85.9 | 89.7 | 95.7 | 27.3
[7] | – | – | – | – | 99.8 | 80.8 | 84.4 | 83.7 | 20.9
[8] | – | – | – | – | 98.7 | 6.75 | 22.8 | 5.84 | 93.9
[9] | – | – | – | – | 84.4 | 90.7 | 77.1 | 81.5 | 8.19
[10] | – | – | – | – | > 100 | 42.9 | 69.1 | 0.583 | 63.3
[11] | – | – | – | – | 82.2 | 89.7 | 89.9 | 84.7 | 6.5
[12] | – | – | – | – | 98.5 | 98.9 | 91.9 | 84.6 | 11.6
[13] | – | – | – | – | 87.8 | 69.7 | 83.6 | 75.4 | 15
[14] | – | – | – | – | 63.1 | 7.88 | 22 | 6.35 | 28.7
[15] | – | – | – | – | 96.6 | 92.2 | 93 | 80 | 34.6
[16] | – | – | – | – | 72.1 | 28.8 | 60.8 | < 0 | < 0
[17] | – | – | – | – | 89.2 | 41.6 | 43.3 | 2.16 | 89.9

cell viability [%], HL-60 [2]
Details | 0.001 µM | 0.01 µM | 0.1 µM | 1 µM | 10 µM
co-treatment: AZD3965 100 nM | 101 | 106 | 96.1 | 102 | 2.22
co-treatment: DMSO vehicle | 101 | 104 | 96.3 | 102 | 2.19
co-treatment: GSK2194069 100 nM | 107 | 104 | 90 | 87.6 | 2.81
co-treatment: pictilisib 100 nM | 104 | 100 | 93.97 | 91.4 | 1.94
